Format in all cases: functional, cell-based
Assay [1] concerns HGC-27. Put plainly: Antiproliferative activity against human HGC-27 cells after 72 hrs by MTT assay. The following applies: HGC-27, 72 h. For orientation: Tetrazolium dyes change colour on reduction, which living cells bring about.
Assay [2] concerns L02. The assay is described as follows: Antiproliferative activity against human L02 cells after 72 hrs by MTT assay. The conditions noted are these: L02, 72 h.
For assay [3], the system named is U-251. The assay is described as follows: Antiproliferative activity against human U-251 cells after 72 hrs by MTT assay. The following applies: U-251, 72 h.
The subject of assay [4] is SK-HEP1. The assay is described as follows: Antiproliferative activity against human SK-HEP1 cells after 72 hrs by MTT assay. The following applies: SK-HEP1, 72 h.
Assay [5] has as its system HL-60. The assay is described as follows: Antiproliferative activity against human HL-60 cells after 72 hrs by MTT assay. The conditions noted are these: HL-60, 72 h.
The subject of assay [6] is Huh-7. The assay is described as follows: Antiproliferative activity against human Huh-7 cells after 72 hrs by MTT assay. The following applies: Huh-7, 72 h.
Assay [7] concerns SW480. Put plainly: Antiproliferative activity against human SW480 cells after 72 hrs by MTT assay. The following applies: SW480, 72 h.
Assay [8] has as its system HepG2. Put plainly: Antiproliferative activity against human HepG2 cells after 72 hrs by MTT assay. The following applies: HepG2, 72 h.
Assay [9] relates to SGC-7901. The assay is described as follows: Antiproliferative activity against human SGC-7901 cells after 72 hrs by MTT assay. The following applies: SGC-7901, 72 h.
Assay [10] concerns HCCLM9. Put plainly: Antiproliferative activity against human HCCLM9 cells after 72 hrs by MTT assay. The conditions noted are these: HCCLM9, 72 h.
Assay [11] concerns HT-29. Put plainly: Antiproliferative activity against human HT-29 cells after 72 hrs by MTT assay. The following applies: HT-29, 72 h.
Assay [12] relates to MDA-MB-231. The assay is described as follows: Antiproliferative activity against human MDA-MB-231 cells after 72 hrs by MTT assay. The following applies: MDA-MB-231, 72 h.
For assay [13], the system named is RKO. The assay is described as follows: Antiproliferative activity against human RKO cells after 72 hrs by MTT assay.
For assay [14], the system named is A549. Put plainly: Antiproliferative activity against human A549 cells after 72 hrs by MTT assay. The following applies: A549, 72 h.
Assay [15] deals with MCF7. The assay is described as follows: Antiproliferative activity against human MCF7 cells after 72 hrs by MTT assay. The conditions noted are these: MCF7, 72 h.
Assay [16] has as its system BGC-823. Put plainly: Antiproliferative activity against human BGC-823 cells after 72 hrs by MTT assay. The conditions noted are these: BGC-823, 72 h.
Assay [17] relates to HCT-116. The assay is described as follows: Antiproliferative activity against human HCT-116 cells after 72 hrs by MTT assay. The following applies: HCT-116, 72 h.

The results in this text go back to ChEMBL document CHEMBL5154652, “Design, synthesis and anti-hepatocellular carcinoma activity of 3-arylisoquinoline alkaloids” (Eur J Med Chem, 2022).

A word on the IC50: it is the midpoint of a concentration-inhibition curve. Consider `CCOC(=O)N(C)CCc1cc2c(cc1-c1cc3ccc4c(c3cn1)OCO4)OCO2`, for which the IC50 in assay [1] is 99.8 µM; in [2] it was 149 µM; in assay [3] it was 51.8 µM; in assay [4], 103 µM; in [5], over 150 µM; in assay [6] it was 19.2 µM. For the same compound, the IC50 in assay [7] is 28.6 µM; in assay [8], 27.3 µM; in [9], 28.8 µM; in [10] it was 25.1 µM; in assay [11], 96.6 µM; in assay [12], 36.7 µM. The IC50 was 91.6 µM in [13]; over 150 µM in assay [14]; 69.7 µM in [15]; 49.9 µM in assay [16]; over 150 µM in assay [17].
For `CN(C)CCCCc1cc2c(cc1-c1cc3ccc4c(c3cn1)OCO4)OCO2`, the IC50 came to 38.9 µM in [1]; 15 µM in [3]; 35.6 µM in [4]; 37.8 µM in assay [6]; 63.2 µM in assay [7]; 55.4 µM in assay [8]. Besides, the IC50 in assay [9] was 39 µM; in assay [10] it was 38.5 µM; in assay [11] it was 41.6 µM; in assay [12], 26.6 µM; in assay [13], 93.1 µM; in [14] it was 81.9 µM. In addition, the IC50 amounted to 53.6 µM in assay [15], 83.5 µM in assay [16] and 97 µM in assay [17].
Take `CNCCc1cc2c(cc1-c1cc3ccc4c(c3cn1)OCO4)OCO2`: the IC50 is 20.9 µM in assay [1]; over 150 µM in [2]; 19.1 µM in [3]; 28.2 µM in assay [4]; 113 µM in assay [5]; 15.5 µM in [6]. In addition, the IC50 in assay [7] is 25.4 µM; in assay [8], 45 µM; in assay [10] it was 10 µM; in assay [11], 23 µM; in assay [12] it was 19.3 µM; in assay [13], 63.5 µM. Also, the IC50 is 49.9 µM in assay [15], 25.9 µM in assay [16] and over 150 µM in assay [17].
Regarding `CNCCc1cc(OC)c(OC)cc1-c1cc2ccc3c(c2cn1)OCO3`, the IC50 in assay [1] is 93.9 µM; in [2], over 150 µM; in [3] it was 43.3 µM; in assay [4], 69.9 µM; in assay [5], over 150 µM; in assay [6], 42.9 µM. The IC50 in [7] is 21.8 µM; in assay [9] it was over 150 µM; in assay [10] it was 20.2 µM; in [11], 122 µM; in assay [12], 68.7 µM; in assay [13] it was over 150 µM. For the same compound, the figures for the half-inhibitory concentration (IC50) in assay [15], in [16] and in assay [17] were 52.8 µM, 15.8 µM and over 150 µM, respectively.
Take `COCCc1cc(OC)c(OC)cc1-c1cc2ccc3c(c2cn1)OCO3`: the IC50 in [1] is 120 µM; in [2], over 150 µM; in assay [3], over 150 µM; in assay [5], over 150 µM; in assay [6], 77 µM; in [7] it was 105 µM. The IC50 is over 150 µM in [8]; over 150 µM in assay [9]; over 150 µM in assay [10]; over 150 µM in [11]; 128 µM in assay [12]; over 150 µM in assay [13]. Also, the IC50 in assay [14] was over 150 µM; in [15] it was 32.4 µM; in assay [16], over 150 µM; in [17], over 150 µM.
With `CN(C)Cc1c(-c2cc3c4c(ccc3cn2)OCO4)ccc2c1OCO2`, the IC50 was over 150 µM in assay [2]; 25.5 µM in assay [6]; 74.7 µM in [7]; 46.7 µM in [8]; 12.5 µM in assay [10]; 46.7 µM in [11]. This compound showed an IC50 in [13] of 47 µM.
On to `CN(C)CCc1cc2c(cc1-c1cc3ccc4c(c3cn1)OCO4)OCO2`, for which the IC50 in assay [1] was 78.5 µM; in [3], 28.5 µM; in assay [4] it was 32.4 µM; in assay [5], 130 µM; in [6], 17.6 µM; in [7] it was 36.3 µM. In addition, the IC50 in assay [8] was 72.5 µM; in assay [9], 45.1 µM; in [10] it was 21 µM; in [11], over 150 µM; in assay [12] it was 30.2 µM; in [13], over 150 µM. The IC50 in assay [14] was 65.2 µM; in assay [15], 61.7 µM; in assay [16], 33.6 µM; in [17] it was over 150 µM.
In the case of `CN(C)CCCc1cc2c(cc1-c1cc3ccc4c(c3cn1)OCO4)OCO2`, the IC50 in assay [1] is over 150 µM; in [2] it was over 150 µM; in assay [3], 24.5 µM; in assay [4], 38.2 µM; in assay [5] it was 93.6 µM; in assay [6] it was 20 µM. Further, the IC50 in assay [7] was found to be 40.6 µM; in assay [8], 80.4 µM; in assay [9], 55.5 µM; in assay [10] it was 15.6 µM; in assay [11] it was 96.6 µM; in assay [12], 35.6 µM. Also, the IC50 in assay [13] was 126 µM; in [14] it was 65.7 µM; in assay [15] it was 60.4 µM; in assay [16] it was 51.8 µM; in [17] it was over 150 µM.
Take `COc1cc(CCN(C)C)c(-c2cc3ccc4c(c3cn2)OCO4)cc1OC`: the IC50 in assay [1] was over 150 µM; in [2], over 150 µM; in [3] it was 65.1 µM; in [5] it was over 150 µM; in assay [6] it was 59.5 µM; in [7], 40.6 µM. The IC50 was over 150 µM in assay [8]; 81.9 µM in [9]; 32.4 µM in assay [10]; 146 µM in assay [11]; 103 µM in assay [12]; over 150 µM in assay [13]. The IC50 is over 150 µM in [14], 94.6 µM in assay [15], 31.6 µM in assay [16] and over 150 µM in assay [17].
On to `OCc1cc2c(cc1-c1cc3ccc4c(c3cn1)OCO4)OCO2`, for which the IC50 is 42.3 µM in assay [6]; 36.9 µM in assay [7]; 32.7 µM in [10]; 46.7 µM in assay [11]; 87.4 µM in [13]; 46.7 µM in assay [17].
Consider `CNCCCc1cc2c(cc1-c1cc3ccc4c(c3cn1)OCO4)OCO2`, for which the IC50 in [1] is 73.2 µM; in [2], 90.4 µM; in assay [3], 27.7 µM; in assay [4], 22.2 µM; in assay [5], over 150 µM; in assay [6] it was 19 µM. The IC50 in [7] was determined as 29.4 µM; in assay [8] it was 35.7 µM; in assay [9], 41.6 µM; in assay [10] it was 20.4 µM; in [11], 41.1 µM; in assay [12] it was 39.5 µM. The IC50 in assay [13] was 106 µM; in assay [14] it was 52.1 µM; in [15] it was 42.8 µM; in assay [16] it was 44.9 µM; in assay [17] it was 80.9 µM.
As to `OCc1c(-c2cc3c4c(ccc3cn2)OCO4)ccc2c1OCO2`, the IC50 in assay [2] is over 150 µM; in assay [6], 40.8 µM; in assay [7] it was over 150 µM; in assay [8], over 150 µM; in [10] it was over 150 µM; in assay [11], over 150 µM. Further, the IC50 in assay [13] and in [17] was over 150 µM throughout.
Take `CNCc1c(-c2cc3c4c(ccc3cn2)OCO4)ccc2c1OCO2`: the IC50 came to 74.6 µM in assay [2]; 20.2 µM in assay [6]; 42.7 µM in assay [7]; 26.7 µM in assay [8]; 7.25 µM in assay [10]; 44.5 µM in assay [11]. Also, the IC50 in assay [13] and in [17] was 26.7 µM each time.
Consider `CN(C=O)CCc1cc2c(cc1-c1cc3ccc4c(c3cn1)OCO4)OCO2`, for which the IC50 was 69 µM in [1]; over 150 µM in assay [2]; 53.4 µM in assay [3]; 145 µM in assay [4]; over 150 µM in assay [5]; 63.9 µM in [6]. Besides, the IC50 in assay [7] is over 150 µM; in [8], 74 µM; in assay [9] it was over 150 µM; in [10], over 150 µM; in assay [11] it was over 150 µM; in assay [12] it was 60.9 µM. Moreover, the IC50 in assay [13] was over 150 µM; in assay [14], 96 µM; in assay [15], 130 µM; in assay [16] it was 79.4 µM; in assay [17] it was 86 µM.
Consider `CNCCCCc1cc2c(cc1-c1cc3ccc4c(c3cn1)OCO4)OCO2`, for which the IC50 in assay [1] is 55.3 µM; in [3], 10.8 µM; in [4], 16 µM; in assay [6], 13.7 µM; in assay [7], 15.2 µM; in assay [8] it was 23.2 µM. Also, the IC50 in assay [9] worked out at 20 µM; in assay [10], 10.4 µM; in assay [11], 27.5 µM; in assay [12] it was 19.6 µM; in [13], 81.7 µM; in assay [14], 18.7 µM. Besides, the IC50 in assay [15] stood at 54.6 µM; in assay [16], 26.7 µM; in [17], 57.6 µM.
